Test results published in patent US20150224089A1, “COMBINATIONS OF IKKi/TBK1 INHIBITORS WITH BETA ADRENERGIC AGONISTS OR SYMPATHETIC NERVOUS SYSTEM ACTIVATORS” (THE REGENTS OF THE UNIVERSITY OF MICHIGAN, priority 2014, published 2015).
“Also recorded” adds a separate entry of the source.

Columns and labels:
3T3-L1 adipocytes [1] = assay: cAMP levels in 3T3-L1 adipocytes; format: cell-based
Protocol: (§1) (A) Glycerol release from 3T3-L1 adipocytes treated with or without different concentrations of TNFα as indicated for 24 hr followed by treatment with or without 10 μM ISO or 50 μM FSK. (B) cAMP levels from 3T3-L1 adipocytes treated with or without 100 ng/ml TNFα for 24 hr followed by treatment with or without 10 μM ISO or 50 μM FSK in the presence or absence of pretreatment of 50 μM Amlexanox (Am). (C) cAMP levels from 3T3-L1 adipocytes treated with or without 100 ng/ml TNFα for 24 hr followed by treatment with or without 50 μM FSK in the presence or absence of pretreatment of 1 μM CAY10576 (CAY). (D) Immunoblots of whole cell lysates from 3T3-L1 adipocytes treated with or without different concentrations of TNFα as same as FIG. 2A for 24 hr followed by treatment with or without 10 μM ISO or 50 μM FSK. Results were replicated in multiple experiments. ‘[’ indicates total HSL. ‘n.s.’ represents non-specific band. Arrow indicates CGI-58. (E) Immunoblots of whole cell lysates from 3T3-L1 adipocytes treated with or without 50 ng/ml TNFα or 100 μg/ml poly (I:C) for 24 hr followed by treatment with or without 10 μM ISO for 15 min in the presence or absence of pretreatment with increasing concentrations (0, 10, 50, and 200 μM) of amlexanox for 30 min.
(A) cAMP levels from 3T3-L1 adipocytes expressing empty vector, Flag-IKKε, or Flag-TBK1 treated with or without 50 μM FSK, 250 μM IBMX, or together for 15 min. (B) cAMP levels from 3T3-L1 adipocytes expressing empty vector, Flag-IKKε, or Flag-TBK1 treated with or without 10 μM ISO or 50 μM FSK together with or without 10 μM Zardaverine (Zarda) for 15 min. (C) 32P phospho-image of in vitro kinase reaction using either immunoprecipitated HA-PDE3B from HEK293T cells or 1 μg MBP (myelin basic protein) as a substrate with recombinant kinases as indicated. (D) Immunoblots of immunoprecipitation with anti-HA antibodies followed by treatment with or without CIP (top panel) and whole cell lysates (bottom panel) from Cos-1 cells co-expressing HA-PDE3B with Flag-IKKε/TBK1 or Flag-IKKε/TBK1 K38A. D.E. stands for dark exposure and L.E. stands for light exposure. (E) Immunoblots of GST-14-3-3 pulldown from HEK293T cells co-expressing HA-PDE3B with Flag-TBK1 or Flag-TBK1 K38A.
Obesity is accompanied by infiltration of proinflammatory macrophages into adipose tissue; these cells secrete inflammatory cytokines, such as TNFα, which generate insulin resistance by stimulating catabolic pathways (Hotamisligil, 2006; Lumeng et al., 2007; Ye and Keller, 2010; Ouchi et al., 2011; herein incorporated by reference in their entireties). Although TNFα is known to increase lipolysis in adipocytes (Zhang et al., 2002; Souza et al., 2003; Green et al., 2004; Plomgaard et al., 2008; herein incorporated by reference in their entireties), there is also evidence of a counterinflammatory response in obesity that may serve to repress energy expenditure (Gregor and Hotamisligil, 2011; Saltiel, 2012; Calay and Hotamisligil, 2013; Reilly et al., 2013; herein incorporated by reference in their entireties). Experiments were conducted during development of embodiments of the present invention using TNFα to model the inflammatory milieu of obese adipose tissue in cell culture to determine whether the cytokine might also regulate β-adrenergic signaling in this context. While short-term treatment with TNFα augmented the increase in cAMP produced by forskolin treatment, this effect declined after 12 hr. […] Thus, the catabolic effects of the proinflammatory cytokine TNFα in adipocytes are transient and followed by an inhibitory phase.
Treatment of 3T3-L1 adipocytes with TNFα for 24 hr induced the expression of IKKε and increased TBK1 phosphorylation at the active site in a manner that was dependent on the activity of IKKβ and the NFκB pathway (Reilly et al., 2013; herein incorporated by reference in its entirety). […]

3T3-L1 adipocytes [2] = assay: Immunoblots of β-adrenergic/PKA signaling (HSL, perilipin, PKA substrate, p38 phosphorylation) in 3T3-L1 adipocytes; format: cell-based
Protocol: as §1, with “Results were replicated in multiple experiments. ‘[’ indicates total HSL. ‘n.s.’ represents non-specific band.” left out
Experiments were conducted during development of embodiments of the present invention to determine whether the repression of β-adrenergic sensitivity produced by longer-term treatment with TNFα is due to increased activity of the noncanonical IKKs.

CC(C)c1ccc2oc3nc(N)c(C(=O)O)cc3c(=O)c2c1 [amlexanox, 2-amino-7-isopropyl-1-azaxanthone-3-carboxylic acid; 2-amino-7-isopropyl-5-oxo-5H-chromeno[2,3-b]pyridine-3-carboxylic acid]
rescue of TNFα-decreased isoproterenol- and forskolin-stimulated cAMP production (3T3-L1 adipocytes [1]; preincubation with 50 μM amlexanox, 100 ng/ml TNFα 24 hr, 10 μM ISO or 50 μM FSK): largely rescued | effect on TNFα inhibition of isoproterenol-stimulated β-adrenergic signaling (phospho-PKA substrate, phospho-HSL, phospho-perilipin) (3T3-L1 adipocytes [2]; amlexanox pretreatment 0, 10, 50, 200 μM for 30 min, 50 ng/ml TNFα 24 hr, 10 μM ISO 15 min): blocked the inhibitory effect of TNFα | phosphorylation of p38 in response to isoproterenol (3T3-L1 adipocytes [2]; amlexanox pretreatment 0, 10, 50, 200 μM, dose-dependent): dramatically augmented | effect on Poly (I:C) inhibition of sensitivity to isoproterenol stimulation (3T3-L1 adipocytes [2]; amlexanox pretreatment, 100 μg/ml poly (I:C) 24 hr, less than with TNFα): partially restored

TNFα
isoproterenol- and forskolin-stimulated cAMP production (3T3-L1 adipocytes [1]; TNFα for 24 hr (100 ng/ml), 10 μM ISO or 50 μM FSK): inhibited the production of the second messenger; also recorded: decreased isoproterenol- and forskolin-stimulated cAMP production | increase in cAMP produced by forskolin treatment (3T3-L1 adipocytes [1]; short-term treatment with TNFα): augmented | isoproterenol-stimulated β-adrenergic signaling (phosphorylation of HSL, perilipin, PKA substrate motif proteins) (3T3-L1 adipocytes [2]; TNFα for 24 hr, 10 μM ISO): decreased
